Results: US5342771A, “Functionalized imidazolinone haptens and protein conjugates thereof useful in assays for the detection of imidazolinone herbicides” (American Cyanamid Company, priority 1993, dated 1994)

Target: antibody
Assay: Cross-reactivity of the antibody by ELISA (competitive binding with enzyme conjugate)
Design: species or system New Zealand white rabbits
Details: concentration giving 50% reduction of absorbance caused by enzyme conjugate binding to a known amount of antibody
Protocol: The antigen produced in example 2 is dissolved into 0.1M sodium phosphate buffer solution containing 0.14% sodium chloride at pH 7.6 (PBS 7.6). One milliliter of the antigen solution, 0.5 mg antigen per milliliter, is mixed with one milliliter of Freund's complete adjuvant and emulsified. The emulsion is injected peri-lymph nodal into New Zealand white rabbits at 0.5 mg/rabbit. Three weeks after the initial immunization, 0.25 mg of the antigen in 1 mL of PBS 7.6 is emulsified with 1 mL of Freund's incomplete adjuvant and injected into the rabbits intramuscularly as boosters. The booster injections are introduced every three weeks into the rabbits. After the second boost, blood samples are collected through the ear vein ten days post injection. Serum containing the antibody is harvested from the blood samples and stored.
The antibody and enzyme conjugate prepared above are used to establish an ELISA method for the determination of the presence and concentration of imidazolinones in soil, water or plant samples. A Costar 96 well polystyrene EIA treated flat bottom microwell plate is coated with a constant amount of the antibody in a 0.1N Na2 CO3 buffer. The antibody coated wells are incubated overnight at 4° C., washed with PBS 7.6 buffer containing 0.01% TWEEN® 20, blocked with 5% milk (nonfat dry milk) in PBS 7.6 and incubated 30 minutes at room temperature. Standard solutions having concentrations of imazaquin from 0 to 25 ng per mL are added to the blocked wells followed by the addition of the aforementioned enzyme conjugate.
The wells are incubated for thirty minutes, washed and then a freshly prepared tetramethylbenzidine/hydrogen peroxide substrate solution is added to each well. After ten minutes, readings are taken for each well at 650 nm using a microwell reader.
The cross reactivity of the antibody with imidazolinone compounds, imidazolinone metabolites and other commonly found agrochemicals is determined using the procedure of example 5. The concentration of a compound which produces a 50% reduction of absorbance caused by the enzyme conjugate binding to a known amount of antibody is defined as the I50 value (50% inhibition concentration). The I50 values from the cross-reactivity studies are in Table III.

Molecule: C[n+]1ccc(-c2cc[n+](C)cc2)cc1 [Paraquat]
- I50 (50% inhibition concentration): > 100,000 ng/mL

Molecule: CC(C)C(C)(NC(=O)c1cc2ccccc2nc1C(=O)O)C(N)=O (centres unmarked) [3-[(1-Carbamoyl-1,2-dimethylpropyl)carbamoyl]quinaldic acid]
- I50 (50% inhibition concentration): > 5,000 ng/mL

Molecule: CC(C)C1(C)N=C(c2ncccc2C(=O)O)NC1=O (centres unmarked) [Imazapyr, 2-(4-isopropyl-4-methyl-5-oxo-2-imidazolin-2-yl)nicotinic acid]
- I50 (50% inhibition concentration): 149.0 ng/mL

Molecule: COC(=O)c1nc2ccccc2cc1C(=O)NC(C)(C(N)=O)C(C)C (centres unmarked) [Methyl 3-[(1-carbamoyl-1,2-dimethylpropyl)carbamoyl]-2-quinolinecarboxylate]
- I50 (50% inhibition concentration): > 5,000 ng/mL

Molecule: CC(C)C1(C)N=C(c2nc3ccccc3cc2C(=O)O)NC1=O (centres unmarked) [Imazaquin, 2-(4-isopropyl-4-methyl-5-oxo-2-imidazolin-2-yl)-3-quinolinecarboxylic acid]
- I50 (50% inhibition concentration): 10.7 ng/mL

Molecule: COc1nc(C)nc(NC(=O)NS(=O)(=O)c2ccccc2Cl)n1 [Chlorsulfuron]
- I50 (50% inhibition concentration): > 100,000 ng/mL

Molecule: CC(C)C(C)(C(N)=O)N1C(=O)c2cc3ccccc3nc2C1=O (stereo not drawn) [1,3-Dihydro-α-isopropyl-α-methyl-1,3-dioxo-2 --H-pyrrolo[3,4- -b]quinoline-2-acetamide]
- I50 (50% inhibition concentration): > 5,000 ng/mL

Molecule: CCNc1nc(Cl)nc(NC(C)C)n1 [Atrazine]
- I50 (50% inhibition concentration): > 100,000 ng/mL

Molecule: CCC(CC)Nc1c([N+](=O)[O-])cc(C)c(C)c1[N+](=O)[O-] [Pendimethalin]
- I50 (50% inhibition concentration): > 100,000 ng/mL

Molecule: CCc1cnc(C2=NC(C)(C(C)C)C(=O)N2)c(C(=O)O)c1 (centres unmarked) [Imazethapyr, 5-ethyl-2-(4-isopropyl-4-methyl-5-oxo-2-imidazolin-2-yl)nicotinic acid]
- I50 (50% inhibition concentration): 18.5 ng/mL

Molecule: CCCCOCN(C(=O)CCl)c1c(CC)cccc1CC [Butachlor]
- I50 (50% inhibition concentration): > 100,000 ng/mL

Molecule: mixture of methyl 6-(4-isopropyl-4-methyl-5-oxo-2-imidazolin-2-yl)-m-toluate and methyl 2-(4-isopropyl-4-methyl-5-oxo-2-imidazolin-2-yl)-p-toluate [Imazamethabenz]
- I50 (50% inhibition concentration): 33.2 ng/mL

Molecule: CCc1cccc(CC)c1N(COC)C(=O)CCl [Alachlor]
- I50 (50% inhibition concentration): > 100,000 ng/mL

Molecule: CC(C)C(C)(NC(=O)c1nc2ccccc2cc1C(=O)O)C(N)=O (centres unmarked) [2-[(1-Carbamoyl-1,2-dimethylpropyl)carbamoyl]-3-quinolinecarboxylic acid]
- I50 (50% inhibition concentration): > 5,000 ng/mL
